How the values were obtained:
B. subtilis 168 [1] = experiment: fitness (endpoint OD595 vs no drug) (fraction); higher = more growth
In short: (§1)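 Bacterial growth was followed in 384-well plates seeded at OD595 0.01, with 30 µl per well, or 55 µl for S. pneumoniae, in TSB, LB Lennox or CY at 37 °C. OD595 was read every 30 min for 14 h, and each reading had the first reading subtracted as background. Fitness is the background-corrected optical density at entry into stationary phase divided by the robust mean of the no-drug control wells. This ratio is capped at 1.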

S. aureus Newman [2] = experiment: as above
In short: as §1

S. pneumoniae D39V [3] = experiment: as above
In short: as §1

B. subtilis 168 [4] = experiment: Bliss interaction score (quartile over a dose matrix) (fitness difference); higher = more antagonism (negative = synergy)
In short: (§2)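 Each OD595 reading at entry into stationary phase was scaled to the robust mean of the untreated wells on its plate, with a ceiling of 1. These ratios define fitness, and single-drug fitness was inferred from combinations. The Bliss score compares observed fitness with the product-based expectation and is reported as quartiles across all replicate types, technical, biological and donor/recipient.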

S. aureus DSM 20231 = experiment: as above
In short: as §2

S. aureus Newman [5] = experiment: as above
In short: as §2

S. pneumoniae D39V [6] = experiment: as above
In short: as §2
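Wherever Bliss interaction score (quartile over a dose matrix) is given: first quartile when negative (synergy) and third quartile when positive (antagonism).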

Cc1cc(NS(=O)(=O)c2ccc(N)cc2)no1 [Sulfamethoxazol] + CN(C)c1cc(NC(=O)CNC(C)(C)C)c(O)c2c1C[C@H]1C[C@H]3[C@H](N(C)C)C(O)=C(C(N)=O)C(=O)[C@@]3(O)C(O)=C1C2=O [Tigecycline]
fitness, one replicate
Conditions	partner 0.039 µg/mL	partner 0.078 µg/mL	partner 0.125 µg/mL	partner 0.156 µg/mL	partner 0.25 µg/mL	partner 0.5 µg/mL
B. subtilis 168 [1], first compound 0.5 µg/mL	≥ 1	0.989	–	0.959	–	–
B. subtilis 168 [1], first compound 1 µg/mL	–	–	0.963	–	0.923	0.903
B. subtilis 168 [1], first compound 2 µg/mL	–	–	0.942	–	0.88	0.859
B. subtilis 168 [1], first compound 4 µg/mL	–	–	0.922	–	0.899	0.925
S. aureus Newman [2], first compound 8 µg/mL	0.856	0.865	–	0.934	–	–

fitness
Conditions	first compound 1 µg/mL	first compound 2 µg/mL	first compound 4 µg/mL
B. subtilis 168 [1], partner 0.039 µg/mL	0.917	0.92	≥ 1
B. subtilis 168 [1], partner 0.078 µg/mL	0.903	0.921	0.97
B. subtilis 168 [1], partner 0.156 µg/mL	0.911	0.897	0.982
S. aureus Newman [2], partner 0.039 µg/mL	0.991	0.996	≥ 1
S. aureus Newman [2], partner 0.078 µg/mL	0.982	0.999	0.966
S. aureus Newman [2], partner 0.156 µg/mL	0.986	0.983	≥ 1
S. pneumoniae D39V [3], partner 0.65 µg/mL	0.944	0.961	0.937
S. pneumoniae D39V [3], partner 1.3 µg/mL	0.952	0.932	0.937
S. pneumoniae D39V [3], partner 2.6 µg/mL	0.936	0.937	0.95

Conditions	Bliss interaction score
B. subtilis 168 [4]	0.0319
S. aureus DSM 20231	0.108
S. aureus Newman [5]	0.0399
S. pneumoniae D39V [6]	0.0567

CC1=C(C(=O)O)N2C(=O)[C@@H](NC(=O)[C@H](N)c3ccccc3)[C@H]2SC1 [Cephalexin] + CN(N=O)C(=O)N[C@@H](C=O)[C@@H](O)[C@H](O)[C@H](O)CO [Streptozotocin]
fitness, one replicate
Conditions	first compound 0.125 µg/mL	first compound 0.25 µg/mL	first compound 0.5 µg/mL	first compound 1 µg/mL	first compound 2 µg/mL	first compound 4 µg/mL
B. subtilis 168 [1], partner 0.15 µg/mL	0.918	0.932	≥ 1	–	–	–
B. subtilis 168 [1], partner 0.3 µg/mL	≥ 1	≥ 1	≥ 1	–	–	–
B. subtilis 168 [1], partner 0.6 µg/mL	0.952	0.956	0.967	–	–	–
S. pneumoniae D39V [3], partner 1.2 µg/mL	0.878	0.928	0.953	0.218	0.0084	0.0421
S. pneumoniae D39V [3], partner 2.4 µg/mL	0.922	0.965	0.968	0.313	0.0518	0.0145
S. pneumoniae D39V [3], partner 4.8 µg/mL	0.909	0.901	0.922	0.0033	0	0

fitness, S. aureus Newman [2]
Conditions	first compound 0.25 µg/mL	first compound 0.5 µg/mL	first compound 1 µg/mL
partner 0.15 µg/mL	0.874	0.863	0.876
partner 0.3 µg/mL	0.728	0.735	0.786
partner 0.6 µg/mL	0.6	0.591	0.696

Conditions	Bliss interaction score
B. subtilis 168 [4]	0.094
S. aureus DSM 20231	-0.0755
S. aureus Newman [5]	0.0503
S. pneumoniae D39V [6]	-0.0789

CC1=C(C(=O)O)N2C(=O)[C@@H](NC(=O)[C@H](N)c3ccccc3)[C@H]2SC1 [Cephalexin] + C[n+]1ccc(-c2cc[n+](C)cc2)cc1 [Paraquat]
fitness
Conditions	first compound 0.125 µg/mL	first compound 0.25 µg/mL	first compound 0.5 µg/mL	first compound 1 µg/mL
B. subtilis 168 [1], partner 1.25 µg/mL	0.908	0.892	0.924	–
B. subtilis 168 [1], partner 2.5 µg/mL	0.937	0.912	0.902	–
B. subtilis 168 [1], partner 5 µg/mL	0.815	0.795	0.851	–
S. aureus Newman [2], partner 1.25 µg/mL	–	0.986	0.874	0.874
S. aureus Newman [2], partner 2.5 µg/mL	–	0.996	≥ 1	0.918
S. aureus Newman [2], partner 5 µg/mL	–	0.982	0.963	≥ 1

fitness, S. pneumoniae D39V [3], one replicate
Conditions	first compound 0.125 µg/mL	first compound 0.25 µg/mL	first compound 0.5 µg/mL	first compound 1 µg/mL	first compound 2 µg/mL	first compound 4 µg/mL
partner 1.5 µg/mL	0.999	0.982	0.998	0.828	0.21	0.0243
partner 3 µg/mL	0.909	0.913	0.928	0.865	0.286	0.0238
partner 6 µg/mL	0.896	0.897	0.9	0.861	0.328	0.0875

Conditions	Bliss interaction score
B. subtilis 168 [4]	0.0473
S. aureus DSM 20231	0.0584
S. aureus Newman [5]	0.0521
S. pneumoniae D39V [6]	0.135

Cn1c2cccc(=O)c-2nc2ccccc21 [Pyocyanin] + CN[C@@H]1[C@H](O[C@H]2[C@H](O[C@H]3[C@H](O)[C@@H](O)[C@H](N=C(N)N)[C@@H](O)[C@@H]3N=C(N)N)O[C@@H](C)[C@]2(O)C=O)O[C@@H](CO)[C@H](O)[C@H]1O [Streptomycin]
fitness
Conditions	partner 1 µg/mL	partner 2 µg/mL	partner 4 µg/mL	partner 8 µg/mL
B. subtilis 168 [1], first compound 1.25 µg/mL	–	0.938	0.765	–
B. subtilis 168 [1], first compound 2.5 µg/mL	–	0.929	0.879	–
B. subtilis 168 [1], first compound 5 µg/mL	–	0.818	0.791	0.686
S. aureus Newman [2], first compound 1.25 µg/mL	0.891	0.844	–	–
S. aureus Newman [2], first compound 2.5 µg/mL	0.796	0.693	–	–
S. aureus Newman [2], first compound 5 µg/mL	0.427	0.308	0.253	–
S. pneumoniae D39V [3], first compound 0.325 µg/mL	–	≥ 1	≥ 1	0.935
S. pneumoniae D39V [3], first compound 0.65 µg/mL	–	0.943	0.889	0.791
S. pneumoniae D39V [3], first compound 1.3 µg/mL	–	–	0.734	0.592

fitness, S. pneumoniae D39V [3], one replicate
Conditions	first compound 0.325 µg/mL	first compound 0.65 µg/mL	first compound 1.3 µg/mL
partner 2 µg/mL	–	–	0.756
partner 16 µg/mL	0.649	0.61	0.475

Conditions	Bliss interaction score
B. subtilis 168 [4]	0.474
S. aureus DSM 20231	0.109
S. aureus Newman [5]	-0.0643
S. pneumoniae D39V [6]	-0.103

— the supplement of paper PMC10627819
